The NIST ThermoML archive (doi:10.1021/acs.jced.5b00355)
Numbers after ± are expanded uncertainties.

Assay: cn = amount concentration of the nth substance listed, in mol/dm3
Conditions: 298.2 K, 101 kPa, Liquid, Pycnometric method

Question: With Nc1nnc(-c2cccc(Cl)c2Cl)c(N)n1 [lamotrigine] + CC(C)=O as the compound, how does the mass density (c1 = 0.0167) read?
Answer: 852.8 ± 6.9 kg/m3

Question: For Nc1nnc(-c2cccc(Cl)c2Cl)c(N)n1 [lamotrigine] + CCCO, which mass density (c1 = 0.0245) is on record?
Answer: 893.8 ± 7.2 kg/m3

Question: With Nc1nnc(-c2cccc(Cl)c2Cl)c(N)n1 [lamotrigine] + CCO as the compound, how does the mass density (c1 = 0.0134) read?
Answer: 851.7 ± 6.8 kg/m3

Question: With Nc1nnc(-c2cccc(Cl)c2Cl)c(N)n1 [lamotrigine] + CCOC(C)=O as the compound, how does the mass density (c1 = 0.0106) read?
Answer: 995.4 ± 8 kg/m3

Question: Which mass density (c1 = 0.0199) does the source give for Nc1nnc(-c2cccc(Cl)c2Cl)c(N)n1 [lamotrigine] + CO here?
Answer: 834.7 ± 6.7 kg/m3
